{"source": "patent US5985824A", "about": "“Methods and compositions for treating cystic fibrosis” (priority 1997, dated 1999)", "key": {"[1]": {"system": "ΔF508-CFTR (IBE-1 cells)", "test": "SPQ halide efflux assay, cAMP-stimulated Cl- channel activity, IBE-1 cells", "format": "cell-based, human", "details": "DSG 5 to 50 μg/ml, 72 h", "method": "The cAMP-dependent CFTR Cl^- channel activity was assessed using the halide-sensitive fluorophore 6-methoxy-N-(3-sulfopropyl)-quinolinium (SPQ) essentially as described previously (Cheng et al., (1995), supra.; Marshall et al., supra.). Briefly, the cells were treated with different amounts of DSG for the times specified. At the end of the treatment period, the cells were loaded with SPQ by hypotonic shock for 4 min at room temperature. SPQ fluorescence initially was quenched by incubating the cells for up to 30 min in a NaI buffer (135 mM NaI, 2.4 mM K2 HPO4, 0.6 mM KH2 PO4, 1 mM MgSO4, 1 mM CaSO4, 10 mM dextrose, and 10 mM N-2 hydroxyethylpiperazine-N'2-ethanesulfonic acid, pH 7.4). After measuring the baseline fluorescence (Fo) for 2 min., the NaI solution was replaced with one containing 135 mM NaNO3, and fluorescence was measured for another 16 min. […]\nAn increase in halide permeability is reflected by a more rapid increase in SPQ fluorescence. […] Differences in absolute levels reflect quantitative differences between groups in SPQ loading, size of cells, or number of cells studied. The data are presented as means± SE of fluorescence at time t (Ft) minus the baseline fluorescence (Fo, the average fluorescence measured in the presence of I^- for 2 min. before ion substitution) and are representative of results obtained under each condition. […]"}, "[2]": {"target": "hsc70 (hsp70)", "details": "cited from earlier work"}, "[3]": {"test": "toxicity of DSG to cells in culture", "format": "cell-based", "details": "up to 72 h; read-out: concentrations toxic to most of the cell types tested", "method": "Cells were treated with up to 100 μg/ml of DSG for up to 72 h. Concentrations of DSG >50 μg/ml were toxic to most of the cell types tested. Since DSG is modified by polyamine oxidase present in fetal bovine serum (Tepper et al., supra.), cells were routinely replenished with fresh medium containing DSG and aminoguanidine every 24 h. As a control in some experiments, C127 cells were also treated with 5 mM sodium butyrate for 24 h. to enhance expression of ΔF508-CFTR (Cheng et al. (1995), supra.). As another control, cells were cultured at 23° C. for 24 to 48 h. to facilitate folding of the mutant ΔF508-CFTR at the ER.\nCFT1 and JME/CF15 are two immortalized human CF airway epitheliavarill lines which contain the ΔF508 variant (Jefferson et al. (1990), Am. J. Physiol. 259: L496-L505; Yankaskas et al., (1993), Am. J. Physiol. 264: C1219-C1230). Cells were treated with up to 100 μg/ml of DSG for up to 72 h. Concentrations of DSG >50 μg/ml were toxic to most of the cell types tested. Since DSG is modified by polyamine oxidase present in fetal bovine serum (Tepper et al., supra.), cells were routinely replenished with fresh medium containing DSG and aminoguanidine every 24 h. As a control in some experiments, cells were cultured at 23° C. for 24 to 48 h. to facilitate folding of the mutant ΔF508-CFTR at the ER. […]"}, "[4]": {"system": "ΔF508-CFTR (JME/CF15 cells)", "test": "SPQ assay, cAMP-stimulated Cl- channel activity, JME/CF15 cells", "format": "cell-based, human", "method": "The cAMP-dependent CFTR Cl^- channel activity was assessed using the halide-sensitive fluorophore 6-methoxy-N-(3-sulfopropyl)-quinolinium (SPQ) essentially as described previously (Cheng et al., (1995), supra.; Marshall et al., supra.). Briefly, the cells were treated with different amounts of DSG for the times specified. At the end of the treatment period, the cells were loaded with SPQ by hypotonic shock for 4 min at room temperature. SPQ fluorescence initially was quenched by incubating the cells for up to 30 min in a NaI buffer (135 mM NaI, 2.4 mM K2 HPO4, 0.6 mM KH2 PO4, 1 mM MgSO4, 1 mM CaSO4, 10 mM dextrose, and 10 mM N-2 hydroxyethylpiperazine-N'2-ethanesulfonic acid, pH 7.4). After measuring the baseline fluorescence (Fo) for 2 min., the NaI solution was replaced with one containing 135 mM NaNO3, and fluorescence was measured for another 16 min. Forskolin (20 μM) and 3-isobutyl-1-methyl-xanthine (IBMX) (100 μM) were added 5 min after the anion substitution to increase intracellular levels of cAMP.\nAn increase in halide permeability is reflected by a more rapid increase in SPQ fluorescence. It is the rate of change rather than the absolute change in signal that is the important variable in evaluating anion permeability. Differences in absolute levels reflect quantitative differences between groups in SPQ loading, size of cells, or number of cells studied. The data are presented as means± SE of fluorescence at time t (Ft) minus the baseline fluorescence (Fo, the average fluorescence measured in the presence of I^- for 2 min. before ion substitution) and are representative of results obtained under each condition.\nFor each experiment, between 50 to 100 cells were examined on a given day and studies under each condition were repeated on at least two days. […] There was a broad spectrum in the rate of change in SPQ fluorescence observed with responsive cells. Normally, cells were scored as responsive if they generated a minimum of a […] change in the rate of increase in SPQ fluorescence following stimulation with cAMP agonists. […]"}}, "note": "pKd: −log10 of the molar value. Entries after “also recorded” stand apart in the source; their conditions may differ. Where two headings read alike, the source gives them in different places.", "data": [{"smiles": "N=C(N)NCCCCCCC(=O)NC(O)C(=O)NCCCCNCCCN", "note": "(centres unmarked) [DSG, deoxyspergualin]", "values": [{"measurement": "cAMP-stimulated Cl- channel activity, in words", "setting": "[1]", "value": "concentration-dependent, with higher concentrations of DSG giving rise to greater transport rates and higher numbers of positively-responding cells; also recorded: comparable to that observed when these cells were cultured at a reduced temperature"}, {"measurement": "cells exhibiting measurable cAMP-stimulated Cl- channel activity", "setting": "[1]; FIG. 9B", "value": "up to 20%"}, {"measurement": "pKd", "setting": "[2]; hsc70, Nadeau et al. (1994), read-out: Kd value for DSG binding to hsc70", "value": 5.40}, {"measurement": "pKd", "setting": "[2]; hsp70, read-out: kds, DSG-hsp complexes", "value": "5.30 to 5.40"}, {"measurement": "affinity for hsps, in words", "setting": "[2]; hsps, Nadler et al. (1992), Nadeau et al. (1994)", "value": "Pure human hsp90 and hsp70 have equivalent affinities for DSG"}, {"measurement": "MCC at 72 h", "setting": "[3]", "value": "> 50", "unit": "µg/mL"}, {"measurement": "cAMP-stimulated Cl- channel activity, in words", "setting": "[4]; 72 h", "value": "more robust than that attained when cells were cultured at low temperature; also recorded: a greater number of responsive cells was observed when 10 μg/ml of DSG was used instead of 5 μg/ml; also recorded: no further significant increment in response was noted at concentrations higher than 10 μg/ml; also recorded: increased cAMP-mediated chloride channel activity; also recorded: comparable to that observed when these cells were cultured at a reduced temperature; also recorded: displayed cAMP-responsive Cl^- channel activity"}, {"measurement": "percentage of mature CFTR produced from CFTRΔF508 upon exposure to reduced temperatures", "setting": "[4]; FIG. 4", "value": "increases upon exposure to reduced temperatures"}]}]}
